This passage reports EC50 and IC50 results from patent US10899758B2, “Inhibitors of the menin-MLL interaction” (Vitae Pharmaceuticals, LLC, priority 2016, dated 2021).

A word on the IC50: it is the midpoint of a concentration-inhibition curve. Higher therefore signals weaker potency in that assay.

The subject of assay [1] is human acute monocytic leukemia cell line MV-4-11. The assay can be described thus: Assay 2 (Cell Proliferation Assay), ATP quantitation (CellTiter-Glo). In kind it is cell-based. Particulars: Homo sapiens, MV4-11, 72 h, MV-4-11 cells, read-out: Assay 2 (EC50, inhibition of cell proliferation). As for the experimental part:
Potencies of inhibitor compounds against cell proliferation was assessed against the human acute monocytic leukemia cell line MV-4-11 (ATCC® CRL-9591™) based on ATP quantitation. MV-4-11 cells or toxicity control HL-60 cells (ATCC® CCL-240™) were incubated in 96-well tissue culture plates (1.67×10^4 cells in 200 μL culture media containing 10% FBS per well) with or without test compound for 72 h at 37° C., 5% CO2. After incubation, each well was mixed by pipetting and 95 μL from each well was transferred to a well in 96-well black OptiPlate® plates (PerkinElmer). An equal volume of CellTiter-Glo® Luminescent Cell Viability Assay reagent (Promega) was added to each well, followed by mixing for 5 min on an orbital plate shaker. Luminescence was measured on a Wallac EnVision 2104 Multilabel Reader (PerkinElmer) to quantitate ATP. Percent inhibition of cell proliferation by test compounds was calculated based on uninhibited cell growth (DMSO) versus cells treated with a potent menin inhibitor at a concentration yielding at least 100×LD50.
Background: ATP-based viability assays read luminescence as a measure of living cells.

The target of assay [2] is T1, menin/MLL binding (biotinylated wild-type or mutated menin and MLL-AF9 fusion protein) (Homo sapiens, UniProt O00255).
T1 construct: biotinylated (1) wild-type menin or (2) mutated menin (described in Nature (2012) Vol. 482, pp. 542-548); fused on or other part: Biotin attached chemically (Sulfo-NHS-Biotin); no fused second protein is printed for menin
T1 sequence (O00255 1-459 limits assumed): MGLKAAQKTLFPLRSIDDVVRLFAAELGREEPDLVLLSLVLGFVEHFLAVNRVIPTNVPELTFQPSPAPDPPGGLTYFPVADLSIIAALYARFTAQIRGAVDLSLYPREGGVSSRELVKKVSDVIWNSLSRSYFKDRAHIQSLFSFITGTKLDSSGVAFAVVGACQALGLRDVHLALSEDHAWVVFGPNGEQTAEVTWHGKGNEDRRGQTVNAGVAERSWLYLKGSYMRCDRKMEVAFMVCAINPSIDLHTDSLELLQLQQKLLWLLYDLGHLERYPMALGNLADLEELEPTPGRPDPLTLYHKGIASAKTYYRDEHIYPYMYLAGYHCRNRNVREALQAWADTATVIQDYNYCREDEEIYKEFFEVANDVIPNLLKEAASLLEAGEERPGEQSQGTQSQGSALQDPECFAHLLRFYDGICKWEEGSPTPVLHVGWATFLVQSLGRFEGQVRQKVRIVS
The assay can be described thus: Assay 1 (Binding Assay): AlphaLISA menin/MLL binding. Particulars: 5 nM biotinylated menin, MLL-AF9-FLAG lysate. In a few lines: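 Biotinylated E. coli-expressed menin (wild-type or mutant), 5 nM, incubated 30 min RT with compound and HEK293 lysate of MLL1-1,396–AF9-FLAG in pH 7.4 Tris buffer, 5% DMSO, 1 mM DTT. Anti-FLAG acceptor and streptavidin donor beads added, 60 min RT, AlphaLISA signal read. IC50 from four-parameter fit of % inhibition.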
A general note: In Alpha technology, singlet oxygen from a donor bead excites a nearby acceptor bead.

Take `CC(C)N(C(=O)c1cc(F)ccc1-n1cc(C2CCCN(C[C@H]3CC[C@H](NS(C)(=O)=O)CC3)C2)c2ccncc21)C(C)C` (stereo partly shown) [Example 87, 5-fluoro-N,N-diisopropyl-2-(3-(1-(((1r,4r)-4-(methylsulfonamido)cyclohexyl)methyl)piperidin-3-yl)-1H-pyrrolo[2,3-c]pyridin-1-yl)benzamide]: in assay [1], the EC50 was less than 100 nM. Further, the IC50 in assay [2] was less than 100 nM.
Take `CC(C)N(C)C(=O)c1cc(F)ccc1-n1cc(C2CCN(Cc3ccc(Cl)cc3)CC2)c2ccncc21` [Example 10, 2-(3-(1-(4-chorobenzyl)piperidin-4-yl)-1H-pyrrolo[2,3-c]pyridin-1-yl)-5-fluoro-N-isopropyl-N-methylbenzamide]: the EC50 in assay [1] lay in the range of 100 to 1000 nM. This molecule also showed an IC50 in assay [2] of less than 100 nM.
Consider `CC(C)N(C(=O)c1cc(F)ccc1-n1cc(C2CCCN(Cc3ccc4[nH]c(=O)[nH]c4c3)C2)c2ccncc21)C(C)C` (stereo not shown) [Example 84A, 5-fluoro-N,N-diisopropyl-2-(3-(1-((2-oxo-2,3-dihydro-1H-benzo[d]imidazol-5-yl)methyl)piperidin-3-yl)-1H-pyrrolo[2,3-c]pyridin-1-yl)benzamide], for which the EC50 in assay [1] was less than 100 nM. In assay [2], this molecule displayed an IC50 of less than 100 nM.
Take `CC(C)N(C)C(=O)c1cc(F)ccc1-c1cn(C2CCCN(Cc3ccc4[nH]c(=O)[nH]c4c3)C2)c2ccncc12` (stereo not shown) [Example 74, 5-fluoro-N-isopropyl-N-methyl-2-(1-(1-((2-oxo-2,3-dihydro-1H-benzo[d]imidazol-5-yl)methyl)piperidin-3-yl)-1H-pyrrolo[3,2-c]pyridin-3-yl)benzamide]: in assay [1], the EC50 was not below 1000 nM. Further, the IC50 in assay [2] was less than 100 nM.
For `CC(=O)N[C@H]1CC[C@H](CCN2CCC(c3cn(-c4ccc(F)cc4C(=O)N(C)C(C)C)c4cnccc34)CC2)CC1` [Example 18, 2-(3-(1-(2-(trans-4-acetamidocyclohexyl)ethyl)piperidin-4-yl)-1H-pyrrolo[2,3-c]pyridin-1-yl)-5-fluoro-N-isopropyl-N-methylbenzamide], in assay [1], the EC50 lay in the range of 100 to 1000 nM. In assay [2], this molecule displayed an IC50 of less than 100 nM.
The corresponding values for `CCN(C(=O)c1cc(F)ccc1-n1cc(C2CCN(Cc3ccccc3)CC2)c2ccncc21)C(C)C` [Example 32, 2-(3-(1-benzylpiperidin-4-yl)-1H-pyrrolo[2,3-c]pyridin-1-yl)-N-ethyl-5-fluoro-N-isopropylbenzamide] are less than 100 nM and less than 100 nM.
Regarding `CC(C)N(C)C(=O)c1cc(F)ccc1-n1cc(C2CCC(N(C)CC3CCC(NS(C)(=O)=O)CC3)CC2)c2ccncc21` (single isomer, unassigned) [Example 128, 5-fluoro-N-isopropyl-N-methyl-2-(3-(4-(methyl((4-(methylsulfonamido)cyclohexyl)methyl)amino)cyclohexyl)-1H-pyrrolo[2,3-c]pyridin-1-yl)benzamide], the EC50 in assay [1] is less than 100 nM. In addition, the IC50 in assay [2] is less than 100 nM.
As for `CC(C)N(C)C(=O)c1cc(F)ccc1-n1cc([C@H]2CC[C@H](N3CCC[C@H]3CO)CC2)c2ccncc21` [Example 96, 5-fluoro-2-(3-(trans-4-((S)-2-(hydroxymethyl)pyrrolidin-1-yl)cyclohexyl)-1H-pyrrolo[2,3-c]pyridin-1-yl)-N-isopropyl-N-methylbenzamide], the EC50 in assay [1] lay in the range of 100 to 1000 nM. Also, in assay [2], the half-maximal inhibitory concentration (IC50) was less than 100 nM.
As to `CC(C)N(C)C(=O)c1cc(F)ccc1-n1cc([C@H]2CC[C@H](N3CCCC(O)C3)CC2)c2ccncc21` (stereo partly drawn) [Example 112, 5-fluoro-2-(3-(trans-4-(3-hydroxypiperidin-1-yl)cyclohexyl)-1H-pyrrolo[2,3-c]pyridin-1-yl)-N-isopropyl-N-methylbenzamide], the EC50 in assay [1] was not below 1000 nM. This molecule showed an IC50 in assay [2] of less than 100 nM.
As to `CC(C)N(C)C(=O)c1cc(F)ccc1-n1cc([C@H]2CC[C@H](N3CCOCC3)CC2)c2ccncc21` [Example 117, 5-fluoro-N-isopropyl-N-methyl-2-(3-(trans-4-morpholinocyclohexyl)-1H-pyrrolo[2,3-c]pyridin-1-yl)benzamide], the EC50 in assay [1] was not below 1000 nM. In assay [2], the half-maximal inhibitory concentration (IC50) is less than 100 nM.
Consider `Cc1c(CN2CCC(c3cn(-c4ccc(F)cc4C(=O)N(C)C(C)C)c4cncnc34)CC2)ccc2[nH]c(C#N)cc12` [Example 63, 2-(7-(1-((2-cyano-4-methyl-1H-indol-5-yl)methyl)piperidin-4-yl)-5H-pyrrolo[3,2-d]pyrimidin-5-yl)-5-fluoro-N-isopropyl-N-methylbenzamide], for which, in assay [1], the EC50 was less than 100 nM. In addition, the IC50 in assay [2] was less than 100 nM.
Turning to `CC(C)N(C(=O)c1cc(F)ccc1-n1cc(C2CCCN(Cc3ccc4c(c3)[nH]c(=O)n4CCO)C2)c2ccncc21)C(C)C` (stereo not shown) [Example 84, 5-fluoro-2-(3-(1-((1-(2-hydroxyethyl)-2-oxo-2,3-dihydro-1H-benzo[d]imidazol-5-yl)methyl)piperidin-3-yl)-1H-pyrrolo[2,3-c]pyridin-1-yl)-N,N-diisopropylbenzamide], in assay [1], the EC50 is less than 100 nM. Moreover, the half-maximal inhibitory concentration (IC50) in assay [2] is less than 100 nM.
On to `CC(C)N(C)C(=O)c1cc(F)ccc1-n1cc([C@H]2CC[C@@H](N3CCCC(O)C3)CC2)c2ccncc21` (stereo partly drawn) [Example 113, 5-fluoro-2-(3-(cis-4-(3-hydroxypiperidin-1-yl)cyclohexyl)-1H-pyrrolo[2,3-c]pyridin-1-yl)-N-isopropyl-N-methylbenzamide], for which the EC50 in assay [1] lay within 100 to 1000 nM. In assay [2], this molecule showed an IC50 of less than 100 nM.
For the molecule `CC(C)N(C)C(=O)c1cc(F)ccc1-n1cc([C@H]2CC[C@H](N3CC[C@H](CO)C3)CC2)c2ccncc21` [Example 104, 5-fluoro-2-(3-(trans-4-((S)-3-(hydroxymethyl)pyrrolidin-1-yl)cyclohexyl)-1H-pyrrolo[2,3-c]pyridin-1-yl)-N-isopropyl-N-methylbenzamide], the EC50 in assay [1] lay within 100 to 1000 nM. The same molecule registered an IC50 in assay [2] of less than 100 nM.
For `CC(C)N(C)C(=O)c1cc(F)ccc1-n1cc(C2CCN(Cc3ccc4c(c3)[nH]c(=O)n4CCO)C2)c2ccncc21` (stereo not shown) [Example 123, 5-fluoro-2-(3-(1-((1-(2-hydroxyethyl)-2-oxo-2,3-dihydro-1H-benzo[d]imidazol-5-yl)methyl)pyrrolidin-3-yl)-1H-pyrrolo[2,3-c]pyridin-1-yl)-N-isopropyl-N-methylbenzamide], in that order: less than 100 nM and less than 100 nM.
The corresponding values for `CC(C)N(C)C(=O)c1cc(F)ccc1-n1c(=O)n(C2CCN(CC[C@H]3CC[C@H](NS(C)(=O)=O)CC3)CC2)c2ccncc21` [Example 78, 5-fluoro-N-isopropyl-N-methyl-2-(1-(1-(2-((1r,4r)-4-(methylsulfonamido)cyclohexyl)ethyl)piperidin-4-yl)-2-oxo-1,2-dihydro-3H-imidazo[4,5-c]pyridin-3-yl)benzamide] are 100 to 1000 nM and less than 100 nM.
The corresponding values for `Cc1ccccc1CN1CCC(c2cn(-c3ccc(F)cc3C(=O)N(C)C(C)C)c3cnccc23)CC1` [Example 14, 5-fluoro-N-isopropyl-N-methyl-2-(3-(1-(2-methylbenzyl)piperidin-4-yl)-1H-pyrrolo[2,3-c]pyridin-1-yl)benzamide] are 100 to 1000 nM and less than 100 nM.
Turning to `Cc1c(CN2CCC(c3cn(-c4ccc(F)cc4)c4cnccc34)CC2)ccc2[nH]c(C#N)cc12` [Example 37, 5-((4-(1-(4-fluorophenyl)-1H-pyrrolo[2,3-c]pyridin-3-yl)piperidin-1-yl)methyl)-4-methyl-1H-indole-2-carbonitrile], the EC50 in assay [1] was in the range of 100 to 1000 nM. Also, in assay [2], the half-inhibitory concentration (IC50) was less than 100 nM.
The corresponding values for `CS(=O)(=O)N[C@H]1CC[C@H](CCN2CCC(c3cn(-c4ccc(F)cc4OCC4CC4)c4cnccc34)CC2)CC1` [Example 34, N-(trans-4-(2-(4-(1-(2-(cyclopropylmethoxy)-4-fluorophenyl)-1H-pyrrolo[2,3-c]pyridin-3-yl)piperidin-1-yl)ethyl)cyclohexyl)methanesulfonamide] are 100 to 1000 nM and less than 100 nM.
As for `CCCCCCCCCCCCCCCCCC(=O)OCCn1c(=O)[nH]c2cc(CN3CCC[C@H](c4cn(-c5ccc(F)cc5C(=O)N(C)C(C)C)c5cnccc45)C3)ccc21` [Example 86, (R)-2-(5-((3-(1-(4-fluoro-2-(isopropyl(methyl)carbamoyl)phenyl)-1H-pyrrolo[2,3-c]pyridin-3-yl)piperidin-1-yl)methyl)-2-oxo-2,3-dihydro-1H-benzo[d]imidazol-1-yl)ethyl stearate], in assay [1], the EC50 is less than 100 nM. The molecule also showed an IC50 in assay [2] of less than 100 nM.
